Measured values taken from patent US9526742B2, “Use of epigenome-modifying compounds for the treatment of genetic muscular diseases linked to a protein-conformational disorder” (GENETHON, priority 2012, dated 2016).

Tested on: R77C mutated α-sarcoglycan
Experiment: Immunofluorescence marking of α-sarcoglycan at the membrane of non-permeabilized quadri-transfected HER 911 cells
Assay type: cell-based, human
Conditions: 24 h treatment; for membrane localization of the R77C-mutated α-sarcoglycan protein: HER 911 cells quadri-transfected with α(R77C)-, β-, γ-, δ-sarcoglycan; for membrane addressing of the sarcoglycan complex: quadritransfected HER 911 cells
Description: HER-911 (“Human Embryonic Retinoblast”) cells have been inoculated in vials and cultivated up to a 80% confluence in Dulbecco's modified Eagle's+GlutaMAX (Gibco, Invitrogen) medium containing 10% of fetal calf serum, 0.01 mg/ml of gentamicin, and 1% MEM Non Essential Amino Acids (Gibco, Invitrogen). The cells have been maintained in a humidified atmosphere with 5% C02, at 37° C.
The HER-91 cells have been transfected by means of 12 μl of Fugene.6 Transfection Reagent (Roche) for 2 μg of plasmid (0.5 μg of each of the 4 sarcoglycan (SG) constructions for HER-911 cells). The plasmids expressing the SG, pcDNA3.V5-his_hα-SG, pcDNA3.V5-his_hβ-SG, pcDNA3.V5-his_hγ-SG, and pcDNA3.V5-his_hδ1-SG (transcriptional type-1 variant), are plasmids where the expression of the coding sequence of the respective sarcoglycans is under control of the CMV promoter.
After 48 h, the cells have been treated for 24 h with 5 μM of 5-aza-2′-deoxycytidine or 1 μM of SAHA (Suberoylanilide hydroxamnic acid).
The HER-911 cells have been fixed by incubation with 3.7% of formaldehyde for 15 min at room temperature. If necessary, a permeabilization has been performed by using 0.2% Triton X-100 for 20 min. After having been saturated with 20% fetal calf serum for 30 min, the cells have been incubated with primary antibodies at adapted dilutions (in PBS) for 1 h at room temperature. A monoclonal murine antibody specific for α-SG (NCL-A-SARC) is available from Novocastra. The cells have been washed 3 times with PBS and then incubated for 1 h with secondary antibodies diluted by 1/1,000 in PBS. Finally, the cells have been washed in PBS, mounted by using a Vectashield Mounting Medium with DAPI (Vector, H-1200), and then examined with a confocal immunofluorescence microscope (Leica).
HER 911 human cells have been quadri-transfected with plasmids coding β-, γ-, and δ-sarcoglycans and a plasmid coding either non-mutated α-sarcoglycan (FIG. 1A and FIG. 2A), or R77C mutated α-sarcoglycan (FIGS. 1B and 1C; FIGS. 2B and 2C).
An immunomarking has then been performed on the non-permeabilized cells by using an antibody directed against the extracellular portion of the α-sarcoglycan, which enables to visualize the protein only at the cellular membrane level and thus to compare the addressing of the mutated protein with that of the normal protein.

Row | Structure (SMILES) | membrane localization of the R77C-mutated α-sarcoglycan protein (1 μM, FIG. 2C) | membrane addressing of the sarcoglycan complex (1 μM) | membrane localization of the R77C-mutated α-sarcoglycan protein (5 μM, FIG. 1C) | membrane addressing of the sarcoglycan complex (5 μM)
1 | O=C(CCCCCCC(=O)Nc1ccccc1)NO [SAHA, suberoylanilide hydroxamic acid] | restores the membrane localization of the R77C-mutated protein | enabled to reconstitute the complex at the membrane | – | –
2 | Nc1ncn([C@@H]2O[C@H](CO)[C@@H](O)[C@H]2O)c(=O)n1 [5-azacytidine] | – | – | restores the membrane localization of the R77C-mutated protein | enabled to reconstitute the complex at the membrane
